Experimental data reported in patent US20240067685A1, “HIDDEN ANTIBIOTICS IN THE HUMAN PROTEOME” (priority 2022, published 2024).
≈ marks a conversion by molar mass, not a printed value. Where “and” joins values, the source holds several entries; their conditions need not be identical. Equal values may be shown once. Read-outs that look alike come from different tables or passages of the source. Non-standard residues stand in square brackets, D forms with d. Residues, ends and D or L forms follow the SMILES beside them. No end group written: not given here.

What was measured:
in vitro = conditions: 25% fetal bovine serum
Method: To determine its proteolytic stability, it was assessed whether (ri)-r(P)ApoBS^Pro was less susceptible to serum proteases compared to its parent peptide r(P)ApoBS^Pro.
Stability assay. The resistance to enzymatic degradation assay was performed according to the method described by Powell et al. ^72 Briefly, peptides at 2 mg mL^−1 were exposed to a solution of 25% fetal bovine serum in water. Aliquots were collected after 0.5, 1, 2, and 4 h and 10 μL of trifluoroacetic acid was added to them while the samples were on ice for 10 min. The enzymatic degradation of peptides was followed by reverse-phase high performance liquid chromatography coupled to mass spectrometry (RP-HPLC/ESI-MS). The percentage of remaining peptide was calculated by integrating the area under the curve related to the peptide at time point zero.
where AUCX is the area under the curve of the peak related to the peptide after t h (t=0.5, 1, 2, and 4 h), and AUC0 is the area under the curve of the peak related to the peptide at the beginning of the experiment. Three independent experimental replicates were performed, as previously described. ^73

[1] = test system: P. aeruginosa wild-type PAO1
Method: (§1) Antimicrobial activity. The antimicrobial activity of ApoB-derived encrypted peptides was assessed against a panel of skin pathogens, such as S. epidermidis ATCC 35984, S. aureus ATCC 12600, A. baumannii ATCC 17878, K. pneumoniae ATCC 700603, S. aureus MRSA (WK7-2), E. faecalis ATCC 29212 and P. aeruginosa PAO1 by using the broth microdilution method. ^20 Bacteria were grown to mid-logarithmic phase in MHB at 37° C. […] Following incubation over-night, each sample was diluted, plated on TSA, and incubated at 37° C. for 24 h to count the number of colonies. All experiments were performed in three independent replicates.

S. aureus MRSA (WKZ-2) = test system: S. aureus MRSA (WKZ-2)
Method: as §1

S. aureus ATCC 12600 [2] = assay: microbe, parasite or virus in culture; conditions: for MIC values: conventional antimicrobial agents, Staphylococcus aureus ATCC 12600
Method: as §1

[3] = test system: S. epidermidis ATCC 35984; assay: microbe, parasite or virus in culture; conditions: for MIC values: conventional antimicrobial agents, Staphylococcus epidermidis ATCC 35984
Method: as §1

[4] = test system: K. pneumoniae ATCC 700603; assay: microbe, parasite or virus in culture; conditions: for MIC values: conventional antimicrobial agents, Klebsiella pneumoniae ATCC 700603
Method: as §1

A. baumannii ATCC 17878 [5] = assay: microbe, parasite or virus in culture; conditions: for MIC values: conventional antimicrobial agents, Acinetobacter baumannii ATCC 17878
Method: as §1

A. baumannii ATCC 17878 [6] = assay: Bacterial resistance development assay (30 days); assay type: cell-based, Acinetobacter baumannii; conditions: for MIC: Acinetobacter baumannii; for change in MIC (resistance development): 30 days of treatment
Method: (§2) Experiments were performed to assess whether prolonged exposure to ApoB-derived encrypted peptides led to the evolution of resistant phenotypes, since classical AMPs are known to be less likely to trigger bacterial resistance than standard antibiotics. ^41 The Gram-negative bacterial pathogen A. baumannii ATCC 17878, and the Gram-positives S. epidermidis ATCC 35984, and S. aureus ATCC 12600 were longitudinally treated with r(P)ApoBL^Pro, r(P)ApoBL^Ala, and r(P)ApoBS^Pro. Control sample groups were treated with the antibiotics colistin, gentamicin, and mupirocin, selected based on their distinct mechanisms of action, the former destabilizing the bacterial extracellular membrane and the latter acting on intracellular targets. […] A. baumannii resistance towards colistin increased by up to 8-fold, whereas S. epidermidis resistance to gentamicin and mupirocin increased by up to 16- and 8-fold, respectively (FIG. 3C). […] For example, both colistin-resistant A. baumannii ATCC 17878 and gentamicin-resistant S. epidermidis ATCC 35984 presented wrinkled borders (FIG. 2E) as opposed to the smooth colonies' characteristic of their morphology at the beginning of the experiment (FIG. 2E).
(§3) Bacterial resistance development assay. S. epidermidis ATCC 35984, S. aureus ATCC 12600 and A. baumannii ATCC 17878 bacterial strains were exposed to colistin, gentamicin, mupirocin, r(P)ApoBL^Pro, r(P)ApoBL^Ala or r(P)ApoBS^Pro. Once, we detected the MIC values for each peptide or antibiotic against the bacterial strains tested, we transferred bacterial cells that survived the exposure at a sub-inhibitory (MIC/2) concentration, and they were re-grown and re-exposed to the respective peptide or antibiotic. ^20 The treatment was repeated for 30 days. Strains that developed resistance to antibiotics presented higher MICs at subsequent passages and the cells from the last passage were isolated and stored for scanning electron microscopy analyses.

[7] = test system: S. epidermidis ATCC 35984; assay: Bacterial resistance development assay (30 days); assay type: cell-based, Staphylococcus epidermidis; conditions: for change in MIC (resistance development): S. epidermidis, 30 days of treatment; for MIC: Staphylococcus epidermidis
Method: as §2, §3

S. aureus ATCC 12600 [8] = assay: Bacterial resistance development assay (30 days); assay type: cell-based, Staphylococcus aureus
Method: as §2, §3

E. faecalis ATCC 29212 = test system: E. faecalis ATCC 29212
Method: as §1

[9] = Staphylococcus aureus, ATCC12600, read-out: MIC values
[10] = Staphylococcus epidermidis, ATCC35984, read-out: MIC values
[11] = Acinetobacter baumannii, ATCC17878, read-out: MIC values
[12] = Klebsiella pneumoniae, ATCC700603, read-out: MIC values

CC[C@@H](C)[C@@H](NC(=O)[C@H]1CCCN1C(=O)[C@@H](CO)NC(=O)[C@H]1CCCN1C(=O)[C@@H](CCCCN)NC(=O)[C@@H](CCCNC(=N)N)NC(=O)[C@H]1CCCN1C(=O)[C@H](NC(=O)[C@@H](CCCCN)NC(=O)[C@@H](CC(C)C)NC(=O)[C@@H](CC(C)C)NC(=O)[C@@H](CO)NC(=O)CN)C(C)C)C(=O)N[C@@H](C(=O)N[C@H](Cc1ccccc1)C(=O)N[C@H](CCCCN)C(=O)N[C@H](CC(C)C)C(=O)N[C@H](CCCCN)C(=O)NCC(=O)N1CCC[C@@H]1C(=O)N[C@H](CCCCN)C(=O)N[C@H](CC(C)C)C(=O)N[C@H](C)C(=O)N[C@@H](C(=O)N[C@H](Cc1c[nH]cn1)C(=O)N1CCC[C@@H]1C(=O)O)C(C)C)[C@H](C)CC [(ri)-r(P)ApoBS^Pro] (H-G[dS][dL][dL][dK][dV][dP][dR][dK][dP][dS][dP][dI][dI][dF][dK][dL][dK]G[dP][dK][dL][dA][dV][dH][dP]-OH; N-terminus and C-terminus assumed)
remaining at 4 h, 2 mg mL^-1 (in vitro; bovine): ~50% | MIC [1]: 10 µmol/L (≈ 28.2 µg/mL) | MIC (S. aureus MRSA (WKZ-2)): 10 µmol/L (≈ 28.2 µg/mL) | MIC (S. aureus ATCC 12600 [2]; ATCC 12600): 20 µmol/L | MIC ([3]; ATCC 35984): 10 µmol/L

O=C(OOC(=O)c1ccccc1)c1ccccc1 [Benzoyl Peroxide]
MIC (S. aureus ATCC 12600 [2]; [9]): 16 µg/mL | MIC [3, 10]: 16 µg/mL | MIC values [4]: Resistant | MIC (A. baumannii ATCC 17878 [5]; [11]): 32 µg/mL

CCC[C@@H]1C[C@@H](C(=O)N[C@@H]([C@H]2O[C@H](SC)[C@H](O)[C@@H](O)[C@H]2O)[C@H](C)Cl)N(C)C1 [Clindamycin]
MIC (S. aureus ATCC 12600 [2]; [9]): 0.5 µg/mL | MIC [4, 12]: 125 µg/mL | MIC (A. baumannii ATCC 17878 [5]; [11]): 62.5 µg/mL

O=C(O)CN(CCN(CC(=O)O)CC(=O)O)CC(=O)O [EDTA]
MIC values (S. aureus ATCC 12600 [2]): 24.5 µg/mL (≈ 83.8 µM) | MIC values [3]: 196 µg/mL (≈ 671 µM) | MIC values [4]: 49 µg/mL (≈ 168 µM) | MIC values (A. baumannii ATCC 17878 [5]): 24.5 µg/mL (≈ 83.8 µM)

CC[C@H]1OC(=O)[C@H](C)[C@@H](O[C@H]2C[C@@](C)(OC)[C@@H](O)[C@H](C)O2)[C@H](C)[C@@H](O[C@@H]2O[C@H](C)C[C@H](N(C)C)[C@H]2O)[C@](C)(O)C[C@@H](C)C(=O)[C@H](C)[C@@H](O)[C@]1(C)O [Erytromycin]
MIC (S. aureus ATCC 12600 [2]; [9]): 15 µg/mL | MIC values [3]: Resistant | MIC [4, 12]: 7.8 µg/mL | MIC (A. baumannii ATCC 17878 [5]; [11]): 125 µg/mL

CC(=O)O[C@H]1C[C@@]2(C)[C@@H](C[C@@H](O)[C@H]3[C@@]4(C)CC[C@@H](O)[C@@H](C)[C@@H]4CC[C@@]32C)/C1=C(\CCC=C(C)C)C(=O)O [Fusidic acid]
MIC (S. aureus ATCC 12600 [2]; [9]): 0.06 µg/mL | MIC [3, 10]: 0.06 µg/mL | MIC values [4]: Resistant | MIC (A. baumannii ATCC 17878 [5]; [11]): 2.25 µg/mL

CN[C@H](CC(C)C)C(=O)N[C@H]1C(=O)N[C@@H](CC(N)=O)C(=O)N[C@H]2C(=O)N[C@H]3C(=O)N[C@H](C(=O)N[C@H](C(=O)O)c4cc(O)cc(O)c4-c4cc3ccc4O)[C@H](O)c3ccc(c(Cl)c3)Oc3cc2cc(c3O[C@@H]2O[C@H](CO)[C@@H](O)[C@H](O)[C@H]2O[C@H]2C[C@](C)(N)[C@H](O)[C@H](C)O2)Oc2ccc(cc2Cl)[C@H]1O [Vancomycin]
MIC (S. aureus ATCC 12600 [2]; [9]): 0.78 µg/mL | MIC [3, 10]: 1.56 µg/mL | MIC [4, 12]: 50 µg/mL | MIC (A. baumannii ATCC 17878 [5]; [11]): 50 µg/mL

C/C(=C\C(=O)OCCCCCCCCC(=O)O)C[C@@H]1OC[C@H](C[C@@H]2O[C@H]2[C@@H](C)[C@H](C)O)[C@@H](O)[C@H]1O [mupirocin]
MIC (A. baumannii ATCC 17878 [6]; ATCC17878, read-out: MIC after 30 days of treatment): 400 µg/mL and 800 µM | MIC (A. baumannii ATCC 17878 [6]; ATCC17878, read-out: MIC at start of resistance study): 100 µg/mL and 200 µM | change in MIC (resistance development) [7]: up to 8 fold | MIC ([7]; ATCC35984, read-out: MIC after prolonged treatment): 0.012 µg/mL and 0.024 µM | MIC ([7]; ATCC35984, read-out: MIC at start of resistance study): 0.0015 µg/mL and 0.003 µM | MIC before increase (S. aureus ATCC 12600 [8]; before the increase): 0.024 μg mL^−1 and 0.048 μmol L^−1 | MIC after increase (S. aureus ATCC 12600 [8]; between days 15 and 21 of treatment): 0.19 μg mL^−1 and 0.38 μmol L^−1 | change in MIC (resistance development) (S. aureus ATCC 12600 [8]; prolonged treatment): 8 fold

Colistin
change in MIC (resistance development) (A. baumannii ATCC 17878 [6]; A. baumannii): up to 8 fold | MIC after 30 days of treatment (A. baumannii ATCC 17878 [6]; A. baumannii): 25 µg/mL | MIC after 30 days of treatment (A. baumannii ATCC 17878 [6]; A. baumannii, listed as colistin): 21.6 µmol/L | MIC at start of resistance study (A. baumannii ATCC 17878 [6]; A. baumannii, before prolonged treatment): 3.12 μg mL^−1 and 2.7 μmol L^−1 | change in MIC (resistance development) [7]: No significant resistance development | MIC values (S. aureus ATCC 12600 [2]): 12.5 µg/mL | MIC values [3]: 3.12 µg/mL | MIC values [4]: 3.12 µg/mL | MIC values (A. baumannii ATCC 17878 [5]): 3.12 µg/mL

Gentamicin
change in MIC (resistance development) (A. baumannii ATCC 17878 [6]; A. baumannii): did not change | change in MIC (resistance development) [7]: up to 16 fold | MIC values (S. aureus ATCC 12600 [2]): 1 µg/mL | MIC values [3]: 2 µg/mL | MIC values [4]: 0.5 µg/mL | MIC values (A. baumannii ATCC 17878 [5]): 0.25 µg/mL

PHVALKAGKLKFIIPSPKRPVKLLSGGNTLHLVSTTKT [r(P)ApoBL^Ala]
stability in the presence of serum (in vitro): degraded within minutes | MIC [1]: 2.5 µmol/L | MIC (S. aureus MRSA (WKZ-2)): 10 µmol/L | MIC (E. faecalis ATCC 29212): 10 µmol/L | MIC (S. aureus ATCC 12600 [2]; ATCC 12600): 20 µmol/L | MIC ([3]; ATCC 35984): 10 µmol/L | MIC ([4]; ATCC 700603): 5 µmol/L | MIC (A. baumannii ATCC 17878 [5]; ATCC 17878): 2.5 µmol/L

PHVALKPGKLKFIIPSPKRPVKLLSGGNTLHLVSTTKT [r(P)ApoBL^Pro]
stability in the presence of serum (in vitro): degraded within minutes | MIC [1]: 5 µmol/L | MIC (S. aureus MRSA (WKZ-2)): 20 µmol/L | MIC (E. faecalis ATCC 29212): 20 µmol/L | MIC (S. aureus ATCC 12600 [2]; ATCC 12600): 20 µmol/L | MIC ([3]; ATCC 35984): 10 µmol/L | MIC ([4]; ATCC 700603): 10 µmol/L | MIC (A. baumannii ATCC 17878 [5]; ATCC 17878): 5 µmol/L

Polymyxin B
MIC values (S. aureus ATCC 12600 [2]): 12.5 µg/mL | MIC values [3]: 3.12 µg/mL | MIC values [4]: 6.25 µg/mL | MIC values (A. baumannii ATCC 17878 [5]): 6.25 µg/mL
